Source: patent US6338962B1, “Use of a non-mammalian DNA virus to express an exogenous gene in a mammalian cell” (priority 1996, dated 2002)

Tests used:
Hep G2 = test: Comparison of promoter strengths, β-galactosidase ONPG assay; type: cell-based, human; conditions: for Promoter strength, β-galactosidase: moi 100, 24 hours, mock background subtracted
Text: Baculovirus-mediated Gene Transfer is Enhanced by Butyrate: This example illustrates that butyrate enhances the ability of a baculovirus to express an exogenous gene in a mammalian cell. Five transfer plasmids containing different mammalian promoters were created, as diagrammed in FIG. 18. These vectors were constructed using pSV/BV, a modified version of the baculovirus transfer plasmid pBacPAK9 (Clontech), containing an altered polylinker and SV40 splice and polyadenylation signals. pSV/BV was constructed by restriction of pBacPAK9 with NotI, treatment with T4 DNA polymerase to create blunt ends, and self-ligation to remove the NotI site. A new NotI site was then added by ligation of the linker p[…] into the SmaI site. Finally, SV40 splice and polyadenylation sequences were added by digestion of a variant of pRSVglobin with BglII-BamHI, and insertion of the 850 bp fragment into the BamHI site of the modified BacPAK9, yielding pSV/BV. The human cytomegalovirus immediate early promoter, 758 bp HindIII-XbaI fragment, was excised from PCMV-EBNA (Invitrogen) at HindIII, BamHI and inserted into the HindIII, BamHI sites of pBluescript (SKII^+), yielding plasmid pCMV-SKII^+. The promoter was then excised from CMV-SK II^+ at the XhoI, BamHI sites and inserted into the XhoI, BglII sites of pSV/BV, yielding plasmid pCMV/BV. The 500 bp mouse phosphoglycerate kinase (PGK) promoter was prepared by cutting pKJ1-neo (Tybulewicz et al., 1991, Cell 65: 1153-1163) with EcoRI and made blunt with T4 DNA polymerase to remove the EcoRI site. The resulting pKJ1 plasmid lacking the EcoRI site was amplified by pfu polymerase chain reaction using the primers 5′ […]3′ (SEQ ID NO: 5) and 5′ […]3′ (SEQ ID NO: 6). The amplified PGK promoter was then digested with XhoI and BglII and inserted into the same sites of pSV/BV yielding PKJ1/BV. The 345 bp rat β-actin promoter was excised from pINA (6) at BglII, BamHI and inserted into the BglII site of pSV/BV yielding pβ-actin/BV. The 2.3 kb albumin enhancer and 700 bp albumin promoter were excised from pGEMAlbSVPA (Zaret et al., 1988, Proc. Natl. Acad. Sci. 85:9076-9080) at NaeI, NsiI and inserted into the SmaI, PstI sites of pSV/BV. The RSVlacZ transfer plasmid used (also referred to herein as the Z4 virus) is described above. A 3.0 kb Lac Z cassette was inserted into the NotI site of all of the plasmids constructed (See FIG. 18).
Recombinant viruses were generated by contransfection of the baculovirus transfer vectors with linear BP6 viral DNA (Clontech) into Sf21 cells. The recombinant viruses were purified through three rounds of plaque isolation and amplified on Sf21 cells. The amplified viruses were concentrated by ultracentrifugation as described above and titered by a 96-well method on Sf21 insect cells (O'Reilly et al., 1992, Baculovirus Expression Vectors: A Laboratory Manual, W.H. Freeman, New York, N.Y.).
The human hepatocellular carcinoma cell line HepG2 was infected with each recombinant virus at a multiplicity of infection of 100. Two million cells were infected in a final volume of 1 ml Eagle's Minimum Essential Medium in a 60 mm tissue culture dish. The infection was allowed to proceed for two hours, then 4 ml of complete medium was added to the cells. In a second series of HepG2 infections, the conditions of the first infections were repeated with the exception that after the infection had proceeded for 2 hours 25 μl of sodium butyrate (100 mM) was added to the cells with 1.5 ml complete media. […]

HepG2 cells [1] = test: X-gal histochemical staining of infected cells; type: cell-based, human; conditions: moi 100
Protocol: […] Adherent cell lines were seeded one day prior to infection. Cells were exposed to virus in 2 ml of medium for 90 minutes, and then the virus-containing medium was removed and replaced with fresh medium. Mock-infected cells were treated with 2 ml medium lacking the viral inoculum.
For histochemical staining of β-galactosidase activity, cells were fixed in 2% (w/v) formaldehyde-0.2% (v/v) […] in PBS for 5 minutes. After several rinses with PBS, the cells were stained by the addition of 0.5 mg/ml of X-gal (BRL) in PBS for 2-4 hours at 37° C.

Rat Hepatocytes = test: Comparison of promoter strengths, β-galactosidase ONPG assay; type: cell-based; conditions: Rat Hepatocytes −butyrate
HepG2 cells [2] = test: De novo expression test with inhibitors, β-galactosidase in extracts; type: cell-based, human
Protocol: Second, HepG2 cells were infected with the RSV-lacZ virus and then cultured in the presence of the protein synthesis inhibitor cycloheximide.
To determine whether endosome acidification was necessary for baculovirus-mediated gene transfer into mammalian cells, HepG2 cells were infected with RSV-lacZ AcMNPV in the presence of chloroquine, a lysomotropic agent. HepG2 cells were exposed to AcMNPV virus in media containing or lacking inhibitor for 90 minutes, then the virus-containing media were removed and replaced with fresh media containing or lacking inhibitors as listed.
At one day post-infection, the cells were harvested and extracts were assayed for β-galactosidase activity and protein content. Each value in the table represents the average of three independent assays, with the amount of β-galactosidase produced by the RSV-lacZ AcMNPV virus in the absence of inhibitors assigned a value of 100%. β-galactosidase activity was normalized for protein content of each extract.

CCCC(=O)[O-].[Na+] [sodium butyrate, reference compound]
effect of addition after infection on β-galactosidase expression (Hep G2; HepG2, added 2 hours after start of infection): detectable levels of β-galactosidase expression with all of the promoters tested

Albumin
X-gal staining of cells not treated with butyrate (HepG2 cells [1]): positively stained cells were detected | Promoter strength, β-galactosidase (Rat Hepatocytes): 0.15 ± 0.08 Units/mg | Promoter strength, β-galactosidase (Hep G2; Hep G2 +butyrate): 0.08 ± 0.04 Units/mg | Promoter strength, β-galactosidase (Hep G2; Hep G2 −butyrate): 0.0 ± 0.0 Units/mg | Promoter strength, β-galactosidase (Hep G2; Hep G2 −butyrate, listed as albumin): no activity above background levels | change of gene expression after treatment with butyrate (Hep G2; HepG2): increased gene expression

CCN(CC)CCCC(C)Nc1ccnc2cc(Cl)ccc12 (stereo not drawn) [chloroquine]
effect on de novo expression of β-galactosidase (HepG2 cells [2]; 25 μM continuously present during and after exposure to virus): completely prevented | effect on β-galactosidase expression (HepG2 cells [2]; added at 90 minutes after exposure to the virus): only partial inhibition
